ChEMBL document CHEMBL4507303, “Data for DCP probe TP-004” (2021)

Columns and labels:
[1] = molecular target: Mitogen-activated protein kinase kinase kinase kinase 3 (Homo sapiens) (UniProt Q8IVH8); settings: Compound concentration 1000.0 nM
[2] = molecular target: Homeodomain-interacting protein kinase 2 (Homo sapiens) (UniProt Q9H2X6); settings: Compound concentration 1000.0 nM
[3] = molecular target: Serine/threonine-protein kinase Nek3 (Homo sapiens) (UniProt P51956); settings: Compound concentration 1000.0 nM
[4] = molecular target: MAP kinase-activated protein kinase 5 (Homo sapiens) (UniProt Q8IW41); settings: Compound concentration 1000.0 nM
[5] = molecular target: Tyrosine-protein kinase Lyn (Homo sapiens) (UniProt P07948); settings: Compound concentration 1000.0 nM
[6] = molecular target: Serine/threonine-protein kinase WNK3 (Homo sapiens) (UniProt Q9BYP7); settings: Compound concentration 1000.0 nM
[7] = molecular target: Tyrosine-protein kinase receptor TYRO3 (Homo sapiens) (UniProt Q06418); settings: Compound concentration 1000.0 nM
[8] = molecular target: Sodium-dependent dopamine transporter (Homo sapiens, UniProt Q01959); settings: Compound concentration 10.0 uM
[9] = molecular target: Ribosomal protein S6 kinase alpha-1 (Homo sapiens) (UniProt Q15418); settings: Compound concentration 1000.0 nM
[10] = molecular target: Proto-oncogene tyrosine-protein kinase ROS (Homo sapiens) (UniProt P08922); settings: Compound concentration 1000.0 nM
[11] = molecular target: Non-receptor tyrosine-protein kinase TYK2 (Homo sapiens) (UniProt P29597); settings: Compound concentration 1000.0 nM
[12] = molecular target: Ephrin type-A receptor 5 (Homo sapiens) (UniProt P54756); settings: Compound concentration 1000.0 nM
[13] = molecular target: Discoidin domain-containing receptor 2 (Homo sapiens) (UniProt Q16832); settings: Compound concentration 1000.0 nM
[14] = molecular target: Dual specificity tyrosine-phosphorylation-regulated kinase 1B (Homo sapiens) (UniProt Q9Y463); settings: Compound concentration 1000.0 nM
[15] = molecular target: SNF-related serine/threonine-protein kinase (Homo sapiens) (UniProt Q9NRH2); settings: Compound concentration 1000.0 nM
[16] = molecular target: Activin receptor type-2B (Homo sapiens) (UniProt Q13705); settings: Compound concentration 1000.0 nM
[17] = tested on: Epidermal growth factor receptor (Homo sapiens), P00533 [L858R,T790M]; settings: Compound concentration 1000.0 nM
[18] = molecular target: Maternal embryonic leucine zipper kinase (Homo sapiens) (UniProt Q14680); settings: Compound concentration 1000.0 nM
[19] = molecular target: Serine/threonine-protein kinase Nek11 (Homo sapiens) (UniProt Q8NG66); settings: Compound concentration 1000.0 nM
[20] = molecular target: Serine/threonine-protein kinase Nek7 (Homo sapiens) (UniProt Q8TDX7); settings: Compound concentration 1000.0 nM
[21] = molecular target: Serine/threonine-protein kinase tousled-like 1 (Homo sapiens) (UniProt Q9UKI8); settings: Compound concentration 1000.0 nM
[22] = molecular target: Serine/threonine-protein kinase 17B (Homo sapiens) (UniProt O94768); settings: Compound concentration 1000.0 nM
[23] = molecular target: Receptor tyrosine-protein kinase erbB-4 (Homo sapiens) (UniProt Q15303); settings: Compound concentration 1000.0 nM
[24] = molecular target: Inhibitor of nuclear factor kappa-B kinase subunit alpha (Homo sapiens) (UniProt O15111); settings: Compound concentration 1000.0 nM
[25] = molecular target: Ribosomal protein S6 kinase alpha-3 (Homo sapiens) (UniProt P51812); settings: Compound concentration 1000.0 nM
[26] = molecular target: Serine/threonine-protein kinase LATS1 (Homo sapiens) (UniProt O95835); settings: Compound concentration 1000.0 nM
[27] = molecular target: Dual specificity mitogen-activated protein kinase kinase 1 (Homo sapiens) (UniProt Q02750); settings: Compound concentration 1000.0 nM
[28] = molecular target: Serine/threonine-protein kinase D1 (Homo sapiens) (UniProt Q15139); settings: Compound concentration 1000.0 nM
[29] = tested on: Serine/threonine-protein kinase B-raf (Homo sapiens), P15056 [V600E]; settings: Compound concentration 1000.0 nM
[30] = molecular target: cAMP-dependent protein kinase catalytic subunit PRKX (Homo sapiens) (UniProt P51817); settings: Compound concentration 1000.0 nM
[31] = molecular target: NUAK family SNF1-like kinase 2 (Homo sapiens) (UniProt Q9H093); settings: Compound concentration 1000.0 nM
[32] = molecular target: Mitogen-activated protein kinase kinase kinase kinase 4 (Homo sapiens) (UniProt O95819); settings: Compound concentration 1000.0 nM
[33] = molecular target: Mitogen-activated protein kinase kinase kinase 14 (Homo sapiens) (UniProt Q99558); settings: Compound concentration 1000.0 nM
[34] = molecular target: Sodium-dependent noradrenaline transporter (Homo sapiens) (UniProt P23975); settings: Compound concentration 10.0 uM
[35] = tested on: Receptor-type tyrosine-protein kinase FLT3 (Homo sapiens), P36888 [UNDEFINED MUTATION]; settings: Compound concentration 1000.0 nM
[36] = molecular target: Dual specificity protein kinase CLK3 (Homo sapiens) (UniProt P49761); settings: Compound concentration 1000.0 nM
[37] = molecular target: Sigma intracellular receptor 2 (Homo sapiens) (UniProt Q5BJF2); settings: Compound concentration 10.0 uM
[38] = molecular target: Platelet-derived growth factor receptor alpha (Homo sapiens) (UniProt P16234); settings: Compound concentration 1000.0 nM
[39] = molecular target: Fibroblast growth factor receptor 3 (Homo sapiens) (UniProt P22607); settings: Compound concentration 1000.0 nM
[40] = molecular target: Serine/threonine-protein kinase Nek1 (Homo sapiens) (UniProt Q96PY6); settings: Compound concentration 1000.0 nM
[41] = molecular target: Focal adhesion kinase 1 (Homo sapiens) (UniProt Q05397); settings: Compound concentration 1000.0 nM
[42] = tested on: Epidermal growth factor receptor (Homo sapiens), P00533 [UNDEFINED MUTATION]; settings: Compound concentration 1000.0 nM
[43] = molecular target: Serine/threonine-protein kinase TBK1 (Homo sapiens) (UniProt Q9UHD2); settings: Compound concentration 1000.0 nM
[44] = molecular target: Serine/threonine-protein kinase PknB (Mycobacterium tuberculosis) (UniProt P9WI81); settings: Compound concentration 1000.0 nM
[45] = molecular target: Ephrin type-A receptor 8 (Homo sapiens) (UniProt P29322); settings: Compound concentration 1000.0 nM

Sequence of Serine/threonine-protein kinase tousled-like 1 (Homo sapiens) (Q9UKI8 whole entry): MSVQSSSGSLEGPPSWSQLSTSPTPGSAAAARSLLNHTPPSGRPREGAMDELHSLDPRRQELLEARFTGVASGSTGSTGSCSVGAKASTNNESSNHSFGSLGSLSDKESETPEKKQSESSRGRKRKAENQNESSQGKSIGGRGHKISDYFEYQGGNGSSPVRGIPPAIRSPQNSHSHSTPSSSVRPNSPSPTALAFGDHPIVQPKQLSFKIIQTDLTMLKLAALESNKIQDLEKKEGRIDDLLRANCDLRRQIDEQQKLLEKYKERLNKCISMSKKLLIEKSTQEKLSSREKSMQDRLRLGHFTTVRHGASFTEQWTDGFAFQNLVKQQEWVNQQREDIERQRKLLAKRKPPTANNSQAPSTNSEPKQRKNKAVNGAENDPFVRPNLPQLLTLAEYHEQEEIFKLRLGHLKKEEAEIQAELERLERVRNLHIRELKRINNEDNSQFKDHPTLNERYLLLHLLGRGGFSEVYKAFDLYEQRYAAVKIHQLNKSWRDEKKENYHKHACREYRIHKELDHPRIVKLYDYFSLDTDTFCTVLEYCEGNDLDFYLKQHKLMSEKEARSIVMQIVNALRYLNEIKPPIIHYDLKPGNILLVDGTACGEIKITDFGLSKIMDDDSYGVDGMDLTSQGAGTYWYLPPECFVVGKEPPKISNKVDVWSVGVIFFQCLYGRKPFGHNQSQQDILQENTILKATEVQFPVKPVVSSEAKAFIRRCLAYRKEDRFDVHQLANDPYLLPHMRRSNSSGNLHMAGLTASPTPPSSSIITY
Sequence of Focal adhesion kinase 1 (Homo sapiens) (Q05397 2-1052 limits assumed): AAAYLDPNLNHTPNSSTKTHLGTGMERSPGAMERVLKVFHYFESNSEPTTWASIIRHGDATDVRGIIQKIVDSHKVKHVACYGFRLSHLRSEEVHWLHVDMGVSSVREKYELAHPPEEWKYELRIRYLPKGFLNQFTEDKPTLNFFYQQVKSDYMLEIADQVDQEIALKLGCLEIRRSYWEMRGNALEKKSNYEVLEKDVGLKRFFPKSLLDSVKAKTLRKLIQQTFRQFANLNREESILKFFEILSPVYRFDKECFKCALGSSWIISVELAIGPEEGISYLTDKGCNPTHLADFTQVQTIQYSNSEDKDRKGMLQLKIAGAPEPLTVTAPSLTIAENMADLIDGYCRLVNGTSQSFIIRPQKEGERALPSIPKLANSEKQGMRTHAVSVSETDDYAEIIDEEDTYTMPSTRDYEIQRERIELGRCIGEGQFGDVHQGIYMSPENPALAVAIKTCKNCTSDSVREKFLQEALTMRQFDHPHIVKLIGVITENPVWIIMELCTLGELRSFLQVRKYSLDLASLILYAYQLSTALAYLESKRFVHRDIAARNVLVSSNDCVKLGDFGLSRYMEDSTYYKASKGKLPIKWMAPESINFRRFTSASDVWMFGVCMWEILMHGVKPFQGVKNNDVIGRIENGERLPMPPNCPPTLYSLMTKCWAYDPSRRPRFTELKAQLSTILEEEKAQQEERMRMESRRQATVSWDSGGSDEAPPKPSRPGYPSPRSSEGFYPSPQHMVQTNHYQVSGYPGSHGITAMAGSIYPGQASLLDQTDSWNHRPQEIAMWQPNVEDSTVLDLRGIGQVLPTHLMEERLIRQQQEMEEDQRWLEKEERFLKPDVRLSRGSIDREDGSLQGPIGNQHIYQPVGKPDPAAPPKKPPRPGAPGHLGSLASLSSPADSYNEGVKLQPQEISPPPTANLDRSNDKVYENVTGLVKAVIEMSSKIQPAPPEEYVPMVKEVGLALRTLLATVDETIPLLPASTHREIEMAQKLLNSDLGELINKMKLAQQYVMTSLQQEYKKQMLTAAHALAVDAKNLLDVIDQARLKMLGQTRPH
Sequence of Serine/threonine-protein kinase Nek7 (Homo sapiens) (Q8TDX7 whole entry, looked up): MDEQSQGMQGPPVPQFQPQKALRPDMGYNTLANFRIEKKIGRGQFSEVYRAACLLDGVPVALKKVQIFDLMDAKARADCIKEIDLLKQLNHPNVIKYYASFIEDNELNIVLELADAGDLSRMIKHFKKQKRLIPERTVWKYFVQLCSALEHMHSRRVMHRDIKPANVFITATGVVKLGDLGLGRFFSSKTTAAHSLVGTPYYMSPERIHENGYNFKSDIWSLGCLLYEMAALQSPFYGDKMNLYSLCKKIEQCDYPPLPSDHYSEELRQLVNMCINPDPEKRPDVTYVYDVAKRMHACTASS
Sequence of Serine/threonine-protein kinase Nek11 (Homo sapiens) (Q8NG66 whole entry): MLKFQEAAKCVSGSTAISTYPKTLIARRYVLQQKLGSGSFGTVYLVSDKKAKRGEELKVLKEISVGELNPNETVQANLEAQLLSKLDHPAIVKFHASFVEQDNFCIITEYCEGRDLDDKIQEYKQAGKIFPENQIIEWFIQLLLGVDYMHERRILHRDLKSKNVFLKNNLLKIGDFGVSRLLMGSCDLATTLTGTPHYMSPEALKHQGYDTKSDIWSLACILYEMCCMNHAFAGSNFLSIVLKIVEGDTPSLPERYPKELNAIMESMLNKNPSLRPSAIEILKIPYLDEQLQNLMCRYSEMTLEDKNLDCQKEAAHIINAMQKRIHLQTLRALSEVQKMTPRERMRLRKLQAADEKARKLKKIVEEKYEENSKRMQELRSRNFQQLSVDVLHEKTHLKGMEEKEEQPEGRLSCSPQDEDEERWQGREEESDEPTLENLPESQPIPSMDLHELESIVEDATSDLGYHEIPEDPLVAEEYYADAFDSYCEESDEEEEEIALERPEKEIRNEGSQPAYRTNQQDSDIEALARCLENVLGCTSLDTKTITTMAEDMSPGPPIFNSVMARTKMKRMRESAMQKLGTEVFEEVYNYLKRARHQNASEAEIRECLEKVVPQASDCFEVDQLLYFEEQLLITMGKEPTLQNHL
Sequence of Receptor-type tyrosine-protein kinase FLT3 (Homo sapiens), P36888 [UNDEFINED MUTATION] (P36888 whole entry, looked up, change not shown): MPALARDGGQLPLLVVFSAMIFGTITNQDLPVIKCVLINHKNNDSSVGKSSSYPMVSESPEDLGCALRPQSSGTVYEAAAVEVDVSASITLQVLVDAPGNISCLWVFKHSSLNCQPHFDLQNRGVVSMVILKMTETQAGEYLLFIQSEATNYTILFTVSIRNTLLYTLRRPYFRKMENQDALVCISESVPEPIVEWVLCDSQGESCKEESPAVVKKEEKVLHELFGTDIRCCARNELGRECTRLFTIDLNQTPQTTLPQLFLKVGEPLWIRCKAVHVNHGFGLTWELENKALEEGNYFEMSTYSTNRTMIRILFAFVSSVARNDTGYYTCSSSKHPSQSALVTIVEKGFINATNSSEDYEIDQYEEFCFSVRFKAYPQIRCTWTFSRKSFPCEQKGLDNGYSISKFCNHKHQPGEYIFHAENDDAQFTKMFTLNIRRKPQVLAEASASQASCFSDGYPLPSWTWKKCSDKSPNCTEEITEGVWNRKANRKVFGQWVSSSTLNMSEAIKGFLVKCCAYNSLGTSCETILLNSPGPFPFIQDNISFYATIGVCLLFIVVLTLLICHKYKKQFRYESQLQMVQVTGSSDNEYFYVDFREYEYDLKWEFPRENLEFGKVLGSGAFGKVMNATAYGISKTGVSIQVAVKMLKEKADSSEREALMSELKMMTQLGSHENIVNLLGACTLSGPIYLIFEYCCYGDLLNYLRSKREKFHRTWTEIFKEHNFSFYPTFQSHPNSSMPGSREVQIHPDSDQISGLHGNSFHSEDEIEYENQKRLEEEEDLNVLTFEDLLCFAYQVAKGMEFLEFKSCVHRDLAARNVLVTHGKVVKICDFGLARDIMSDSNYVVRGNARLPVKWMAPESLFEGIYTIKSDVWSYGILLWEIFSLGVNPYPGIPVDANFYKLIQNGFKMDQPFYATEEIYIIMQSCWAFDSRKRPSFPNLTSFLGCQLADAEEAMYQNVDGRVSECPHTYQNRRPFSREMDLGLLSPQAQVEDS
Sequence of Non-receptor tyrosine-protein kinase TYK2 (Homo sapiens) (P29597 whole entry): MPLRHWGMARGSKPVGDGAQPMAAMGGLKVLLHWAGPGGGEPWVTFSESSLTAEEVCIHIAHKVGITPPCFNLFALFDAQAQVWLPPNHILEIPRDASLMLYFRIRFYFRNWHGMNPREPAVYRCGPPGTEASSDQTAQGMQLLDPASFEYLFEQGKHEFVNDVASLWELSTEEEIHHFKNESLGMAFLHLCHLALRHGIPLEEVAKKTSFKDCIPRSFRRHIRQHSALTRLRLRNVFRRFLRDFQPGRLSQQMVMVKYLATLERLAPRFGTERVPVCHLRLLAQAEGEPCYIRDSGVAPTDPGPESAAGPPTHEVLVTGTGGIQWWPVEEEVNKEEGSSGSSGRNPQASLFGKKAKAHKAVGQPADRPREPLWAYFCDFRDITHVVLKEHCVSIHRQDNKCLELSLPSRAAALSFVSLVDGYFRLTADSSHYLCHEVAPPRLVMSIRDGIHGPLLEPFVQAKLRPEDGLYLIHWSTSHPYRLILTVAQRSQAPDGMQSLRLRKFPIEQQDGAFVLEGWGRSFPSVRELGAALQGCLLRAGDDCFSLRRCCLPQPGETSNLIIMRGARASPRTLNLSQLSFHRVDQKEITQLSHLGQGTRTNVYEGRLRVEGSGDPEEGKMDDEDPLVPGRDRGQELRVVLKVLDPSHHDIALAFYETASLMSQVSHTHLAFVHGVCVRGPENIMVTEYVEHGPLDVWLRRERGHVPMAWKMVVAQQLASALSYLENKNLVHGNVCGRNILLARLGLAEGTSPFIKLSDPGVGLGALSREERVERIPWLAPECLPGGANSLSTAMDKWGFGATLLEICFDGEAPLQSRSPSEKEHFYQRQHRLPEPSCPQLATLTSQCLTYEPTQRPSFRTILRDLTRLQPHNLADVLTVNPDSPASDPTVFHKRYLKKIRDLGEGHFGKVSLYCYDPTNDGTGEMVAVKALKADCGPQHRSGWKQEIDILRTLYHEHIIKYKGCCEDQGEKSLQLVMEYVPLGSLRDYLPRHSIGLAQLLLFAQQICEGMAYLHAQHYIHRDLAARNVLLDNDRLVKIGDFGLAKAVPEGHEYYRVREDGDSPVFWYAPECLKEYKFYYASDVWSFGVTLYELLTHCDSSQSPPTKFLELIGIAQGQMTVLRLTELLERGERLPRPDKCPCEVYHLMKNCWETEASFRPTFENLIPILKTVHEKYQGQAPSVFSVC

In the case of `Cc1nc(N2CC[C@@H](O)C2)ncc1-c1cc(C(F)(F)F)cc2[nH]ncc12` [TP-004], the residual activity [1] is reported as 100%, the residual activity [2] is reported as 74% and the residual activity [3] is reported as 60%. The residual activity [4] was 68%, the residual activity [5] was 100% and the residual activity [6] was 67%. The residual activity [7] was 66%, the inhibition [8] was 75.2% and the residual activity [9] was 100%. It also gave a residual activity [10] of 86%, a residual activity [11] of 70% and a residual activity [12] of 100%. It also gave a residual activity [13] of 75%, a residual activity [14] of 96% and a residual activity [15] of 96%. For the same molecule, the residual activity [16] was 79%, the residual activity [17] was 73% and the residual activity [18] was 100%. For the same molecule, the residual activity [19] was 87%, the residual activity [20] was 97% and the residual activity [21] was 100%. The residual activity [22] was 99%, the residual activity [23] was 87% and the residual activity [24] was 76%. For the same molecule, the residual activity [25] was 58%, the residual activity [26] was 81% and the residual activity [27] was 83%. The residual activity [28] was 75%, the residual activity [29] was 77% and the residual activity [30] was 97%. It also gave a residual activity [31] of 67%, a residual activity [32] of 82% and a residual activity [33] of 68%. The inhibition [34] was 36.9%, the residual activity [35] was 100% and the residual activity [36] was 76%. For the same molecule, the inhibition [37] was 45.5%, the residual activity [38] was 76% and the residual activity [39] was 100%. It also gave a residual activity [40] of 100%, a residual activity [41] of 86% and a residual activity [42] of 99%. The residual activity [43] was 82%, the residual activity [44] was 89% and the residual activity [45] was 61%.
